Measurements from ChEMBL document CHEMBL3259590, “The discovery of diazepinone-based 5-HT3 receptor partial agonists” (Bioorg Med Chem Lett, 2014).

What was measured:
Cytochrome P450 2D6 = Cytochrome P450 2D6 (Homo sapiens, UniProt P10635); assay: Inhibition of CYP2D6 (unknown origin); assay type: ADME
Cytochrome P450 2C19 = Cytochrome P450 2C19 (Homo sapiens, UniProt P33261); assay: Inhibition of CYP2C19 (unknown origin); assay type: ADME
Cytochrome P450 2B6 = molecular target: T1, Cytochrome P450 2B6 (Homo sapiens, UniProt P20813); assay: Inhibition of CYP2B6 (unknown origin); assay type: ADME
T1 sequence (P20813 whole entry): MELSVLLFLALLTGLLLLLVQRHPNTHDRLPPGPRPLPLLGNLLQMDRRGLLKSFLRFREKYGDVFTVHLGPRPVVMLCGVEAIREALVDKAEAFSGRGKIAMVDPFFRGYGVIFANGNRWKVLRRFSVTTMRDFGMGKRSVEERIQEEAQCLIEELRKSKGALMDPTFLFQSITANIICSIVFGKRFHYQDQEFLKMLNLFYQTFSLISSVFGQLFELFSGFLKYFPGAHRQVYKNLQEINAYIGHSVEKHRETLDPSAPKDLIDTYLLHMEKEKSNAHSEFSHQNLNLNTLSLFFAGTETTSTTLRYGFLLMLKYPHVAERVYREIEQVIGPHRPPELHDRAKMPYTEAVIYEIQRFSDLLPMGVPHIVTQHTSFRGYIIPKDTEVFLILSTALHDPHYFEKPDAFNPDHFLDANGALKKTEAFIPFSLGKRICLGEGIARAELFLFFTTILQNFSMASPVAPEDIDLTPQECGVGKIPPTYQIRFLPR

[1] = molecular target: T2, 5-hydroxytryptamine receptor 3A (Homo sapiens) (UniProt P46098); assay: Partial agonist activity at human 5-HT3A receptor expressed in HEK293 cells assessed as change in Ca2+ level measured as intrinsic activity at 1 uM relative to 5-HT in presence of carbachol; assay type: cell-based
T2 sequence (whole entry): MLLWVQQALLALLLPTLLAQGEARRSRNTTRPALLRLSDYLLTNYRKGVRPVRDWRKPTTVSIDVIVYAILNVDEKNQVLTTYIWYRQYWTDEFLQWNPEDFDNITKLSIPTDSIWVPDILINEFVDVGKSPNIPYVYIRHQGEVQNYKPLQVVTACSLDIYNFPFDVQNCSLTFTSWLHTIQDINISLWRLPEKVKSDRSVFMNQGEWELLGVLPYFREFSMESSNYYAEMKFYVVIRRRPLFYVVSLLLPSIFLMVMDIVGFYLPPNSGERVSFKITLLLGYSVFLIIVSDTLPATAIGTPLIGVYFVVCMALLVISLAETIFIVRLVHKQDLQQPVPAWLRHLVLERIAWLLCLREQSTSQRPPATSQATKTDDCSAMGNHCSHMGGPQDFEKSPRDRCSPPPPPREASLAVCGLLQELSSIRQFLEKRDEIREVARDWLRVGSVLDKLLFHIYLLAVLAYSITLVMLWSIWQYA

[2] = molecular target: T3, 5-hydroxytryptamine receptor 3A (Homo sapiens, UniProt P46098); assay: Agonist activity at human 5-HT3A receptor expressed in HEK293 cells in presence of carbachol; assay type: cell-based
T3 sequence (P46098 whole entry): T2 sequence (whole entry)

[3] = molecular target: T3, 5-hydroxytryptamine receptor 3A; assay: Displacement of [9-methyl-3H]BRL-43694 from human 5-HT3A receptor after overnight incubation by scintillation proximity assay
[4] = Intrinsic clearance in human liver microsomes; assay type: ADME; conditions: read-out: CLH
Cytochrome P450 2C9 = Cytochrome P450 2C9 (Homo sapiens, UniProt P11712); assay: Inhibition of CYP2C9 (unknown origin); assay type: ADME
Sequence of Cytochrome P450 2C9 (P11712 whole entry): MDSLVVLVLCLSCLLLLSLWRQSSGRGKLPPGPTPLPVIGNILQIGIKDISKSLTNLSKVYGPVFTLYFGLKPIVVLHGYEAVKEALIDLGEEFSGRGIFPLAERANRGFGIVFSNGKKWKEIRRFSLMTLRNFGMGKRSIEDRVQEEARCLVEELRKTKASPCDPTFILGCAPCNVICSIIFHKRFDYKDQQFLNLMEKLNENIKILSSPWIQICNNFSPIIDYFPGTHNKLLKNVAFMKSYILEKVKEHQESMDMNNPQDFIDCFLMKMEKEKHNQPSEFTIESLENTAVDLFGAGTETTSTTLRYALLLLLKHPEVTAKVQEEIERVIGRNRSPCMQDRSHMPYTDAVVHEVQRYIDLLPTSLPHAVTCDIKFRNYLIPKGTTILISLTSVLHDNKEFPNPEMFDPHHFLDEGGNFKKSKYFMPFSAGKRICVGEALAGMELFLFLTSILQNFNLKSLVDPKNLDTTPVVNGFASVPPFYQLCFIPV

Cytochrome P450 3A4 = Cytochrome P450 3A4 (Homo sapiens, UniProt P08684); assay: Inhibition of CYP3A4 (unknown origin); assay type: ADME
Sequence of Cytochrome P450 3A4 (P08684 whole entry): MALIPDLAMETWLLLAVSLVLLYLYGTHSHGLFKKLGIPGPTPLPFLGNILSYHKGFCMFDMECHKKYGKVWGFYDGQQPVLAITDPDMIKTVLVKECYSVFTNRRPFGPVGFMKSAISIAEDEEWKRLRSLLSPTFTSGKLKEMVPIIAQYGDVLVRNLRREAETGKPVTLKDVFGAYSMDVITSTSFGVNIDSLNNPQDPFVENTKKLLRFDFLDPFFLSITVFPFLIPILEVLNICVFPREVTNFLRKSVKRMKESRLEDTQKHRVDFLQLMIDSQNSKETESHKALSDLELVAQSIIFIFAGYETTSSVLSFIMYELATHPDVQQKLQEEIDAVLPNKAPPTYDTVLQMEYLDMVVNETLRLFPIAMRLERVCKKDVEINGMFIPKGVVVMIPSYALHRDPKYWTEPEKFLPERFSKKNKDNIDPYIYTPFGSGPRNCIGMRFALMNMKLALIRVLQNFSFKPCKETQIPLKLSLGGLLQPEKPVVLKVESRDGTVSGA

Cytochrome P450 1A2 = molecular target: T4, Cytochrome P450 1A2 (Homo sapiens, UniProt P05177); assay: Inhibition of CYP1A2 (unknown origin); assay type: ADME
T4 sequence (P05177 whole entry): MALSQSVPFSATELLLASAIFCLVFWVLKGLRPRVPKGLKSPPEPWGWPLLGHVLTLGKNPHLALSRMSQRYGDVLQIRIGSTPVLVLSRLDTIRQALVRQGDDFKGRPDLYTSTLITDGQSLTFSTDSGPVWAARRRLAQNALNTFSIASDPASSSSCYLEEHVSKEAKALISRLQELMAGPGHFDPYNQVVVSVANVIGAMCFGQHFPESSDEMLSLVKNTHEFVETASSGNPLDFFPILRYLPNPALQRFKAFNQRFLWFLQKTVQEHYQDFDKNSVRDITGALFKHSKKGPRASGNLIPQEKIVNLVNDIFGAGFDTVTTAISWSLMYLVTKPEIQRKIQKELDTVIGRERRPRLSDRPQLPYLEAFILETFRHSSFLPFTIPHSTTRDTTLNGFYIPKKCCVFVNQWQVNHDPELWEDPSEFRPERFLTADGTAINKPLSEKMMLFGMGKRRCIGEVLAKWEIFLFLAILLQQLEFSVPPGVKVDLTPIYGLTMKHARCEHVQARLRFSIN

[5] = molecular target: T5, 5-hydroxytryptamine receptor 3A (Mus musculus, UniProt P23979); assay: Agonist activity at mouse 5-HT3A receptor expressed in HEK293 cells in presence of carbachol; assay type: cell-based
T5 sequence (P23979 whole entry): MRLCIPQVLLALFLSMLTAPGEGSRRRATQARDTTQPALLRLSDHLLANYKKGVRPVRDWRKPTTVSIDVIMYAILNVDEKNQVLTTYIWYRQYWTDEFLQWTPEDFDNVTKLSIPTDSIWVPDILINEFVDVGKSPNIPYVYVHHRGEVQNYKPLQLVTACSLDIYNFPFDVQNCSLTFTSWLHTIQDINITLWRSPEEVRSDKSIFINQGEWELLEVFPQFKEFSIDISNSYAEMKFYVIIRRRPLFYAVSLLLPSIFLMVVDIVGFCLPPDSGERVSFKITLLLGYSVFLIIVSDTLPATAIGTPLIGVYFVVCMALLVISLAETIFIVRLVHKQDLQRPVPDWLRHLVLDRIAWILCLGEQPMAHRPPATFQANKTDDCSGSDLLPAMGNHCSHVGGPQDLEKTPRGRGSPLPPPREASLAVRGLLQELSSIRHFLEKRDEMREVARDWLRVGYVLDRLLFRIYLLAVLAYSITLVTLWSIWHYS

[6] = molecular target: T6, 5-hydroxytryptamine receptor 3A (Mus musculus) (UniProt P23979); assay: Partial agonist activity at mouse 5-HT3A receptor expressed in HEK293 cells assessed as change in Ca2+ level measured as intrinsic activity at 1 uM relative to 5-HT in presence of carbachol; assay type: cell-based
T6 sequence (whole entry): T5 sequence (P23979 whole entry)

Mus musculus [7] = assay: Inhibition of 5-HT induced-bradycardia in ICR mouse von Bezold-Jarisch reflex model at 3 mg/kg, po after 60 mins relative to control; assay type: functional; conditions: 1 h
Mus musculus [8] = assay: Inhibition of 5-HT induced-bradycardia in ICR mouse von Bezold-Jarisch reflex model at 1 mg/kg, po after 60 mins relative to control; assay type: functional; conditions: 1 h

Sequence of Cytochrome P450 2C19 (P33261 whole entry): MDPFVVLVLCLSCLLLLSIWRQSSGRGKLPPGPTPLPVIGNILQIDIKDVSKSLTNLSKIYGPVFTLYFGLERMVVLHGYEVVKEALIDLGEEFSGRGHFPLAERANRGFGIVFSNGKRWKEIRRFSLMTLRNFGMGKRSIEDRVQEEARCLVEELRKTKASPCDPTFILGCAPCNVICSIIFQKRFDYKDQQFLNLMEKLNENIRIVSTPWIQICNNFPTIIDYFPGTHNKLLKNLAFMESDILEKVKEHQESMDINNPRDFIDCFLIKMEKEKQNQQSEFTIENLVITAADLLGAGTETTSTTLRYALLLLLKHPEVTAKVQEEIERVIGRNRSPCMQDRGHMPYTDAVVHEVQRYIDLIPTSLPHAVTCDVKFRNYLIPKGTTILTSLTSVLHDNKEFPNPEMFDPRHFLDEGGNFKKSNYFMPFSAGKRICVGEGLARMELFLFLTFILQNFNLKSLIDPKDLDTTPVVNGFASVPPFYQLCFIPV
Sequence of Cytochrome P450 2D6 (P10635 whole entry): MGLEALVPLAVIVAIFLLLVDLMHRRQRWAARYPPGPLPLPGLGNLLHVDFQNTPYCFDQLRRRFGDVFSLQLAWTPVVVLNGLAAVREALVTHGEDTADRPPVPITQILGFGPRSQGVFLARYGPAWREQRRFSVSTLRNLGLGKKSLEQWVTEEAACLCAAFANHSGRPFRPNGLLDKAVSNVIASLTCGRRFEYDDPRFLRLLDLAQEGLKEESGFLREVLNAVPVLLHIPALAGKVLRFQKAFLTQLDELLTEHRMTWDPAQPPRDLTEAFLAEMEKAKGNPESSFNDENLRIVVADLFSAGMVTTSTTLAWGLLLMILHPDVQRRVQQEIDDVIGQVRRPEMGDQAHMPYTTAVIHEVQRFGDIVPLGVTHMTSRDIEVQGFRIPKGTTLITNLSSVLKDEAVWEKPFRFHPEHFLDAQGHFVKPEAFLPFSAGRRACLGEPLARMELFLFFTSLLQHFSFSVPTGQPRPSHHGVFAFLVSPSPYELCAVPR

O=C1c2cccc3ccn(c23)CCN1[C@@H]1CN2CCC1CC2
IC50 (Cytochrome P450 2D6): > 50 µM
IC50 (Cytochrome P450 2C19): > 50 µM
IC50 (Cytochrome P450 2B6): > 50 µM
Activity [1]: 7%
EC50 [2]: 0.178 µM
Ki [3]: 0.0031 µM
microsomal CLint [4]: < 1.7 µL/min/mg
IC50 (Cytochrome P450 2C9): > 50 µM
IC50 (Cytochrome P450 3A4): > 50 µM
IC50 (Cytochrome P450 1A2): > 50 µM

Cc1cn2c3c(cc(Cl)cc13)C(=O)N([C@@H]1CN3CCC1CC3)CC2
microsomal CLint [4]: 2.3 µL/min/mg
IC50 (Cytochrome P450 1A2): 8.8 µM

O=C1c2cccc3cnn(c23)CCN1[C@@H]1CN2CCC1CC2
EC50 [5]: 0.178 µM
IC50 (Cytochrome P450 2D6): > 50 µM
IC50 (Cytochrome P450 2C19): > 50 µM
IC50 (Cytochrome P450 2B6): > 50 µM
Activity [6]: 16%
Activity [1]: 19%
EC50 [2]: 0.178 µM
Ki [3]: 0.0081 µM
microsomal CLint [4]: < 1.7 µL/min/mg
IC50 (Cytochrome P450 2C9): > 50 µM
inhibition in vivo at 3 mg/kg (Mus musculus [7]): 77%
IC50 (Cytochrome P450 3A4): > 50 µM
IC50 (Cytochrome P450 1A2): > 50 µM

O=C1c2cccc3ccn(c23)CCN1[C@H]1CN2CCC1CC2
Ki [3]: 0.0676 µM

O=C1c2cc(F)cc3cnn(c23)CCN1[C@@H]1CN2CCC1CC2
EC50 [5]: 0.178 µM
IC50 (Cytochrome P450 2D6): > 50 µM
IC50 (Cytochrome P450 2C19): > 50 µM
IC50 (Cytochrome P450 2B6): > 50 µM
Activity [6]: 31%
Activity [1]: 30%
EC50 [2]: 0.178 µM
Ki [3]: 0.0064 µM
microsomal CLint [4]: 8.8 µL/min/mg
IC50 (Cytochrome P450 2C9): > 50 µM
IC50 (Cytochrome P450 3A4): > 50 µM
IC50 (Cytochrome P450 1A2): > 50 µM

O=C1c2cccc3[nH]c(=O)n(c23)CCN1[C@@H]1CN2CCC1CC2
IC50 (Cytochrome P450 2D6): > 50 µM
IC50 (Cytochrome P450 2C19): > 50 µM
IC50 (Cytochrome P450 2B6): > 50 µM
Activity [1]: 83%
EC50 [2]: 0.178 µM
Ki [3]: 0.0057 µM
microsomal CLint [4]: 8.4 µL/min/mg
IC50 (Cytochrome P450 2C9): > 50 µM
IC50 (Cytochrome P450 3A4): > 50 µM
IC50 (Cytochrome P450 1A2): > 50 µM

COc1cc2c3c(cnn3CCN([C@@H]3CN4CCC3CC4)C2=O)c1
EC50 [5]: 0.178 µM
IC50 (Cytochrome P450 2D6): > 50 µM
IC50 (Cytochrome P450 2C19): > 50 µM
IC50 (Cytochrome P450 2B6): > 50 µM
Activity [6]: 81%
Activity [1]: 87%
EC50 [2]: 0.178 µM
Ki [3]: 0.0135 µM
microsomal CLint [4]: 1.8 µL/min/mg
IC50 (Cytochrome P450 2C9): > 50 µM
IC50 (Cytochrome P450 3A4): > 50 µM
IC50 (Cytochrome P450 1A2): > 50 µM

Cc1[nH]cnc1CN1CCc2c(c3ccccc3n2C)C1=O [ALOSETRON]
inhibition in vivo at 1 mg/kg (Mus musculus [8]): 95%
microsomal CLint [4]: 3 µL/min/mg

O=C1c2cc(Cl)cc3cnn(c23)CCN1[C@@H]1CN2CCC1CC2
EC50 [5]: 0.178 µM
IC50 (Cytochrome P450 2D6): > 50 µM
IC50 (Cytochrome P450 2C19): > 50 µM
IC50 (Cytochrome P450 2B6): > 50 µM
Activity [6]: 27%
Activity [1]: 28%
EC50 [2]: 0.178 µM
microsomal CLint [4]: 3.1 µL/min/mg
IC50 (Cytochrome P450 2C9): > 50 µM
IC50 (Cytochrome P450 3A4): > 50 µM
IC50 (Cytochrome P450 1A2): > 50 µM

Cc1cc2c3c(cnn3CCN([C@@H]3CN4CCC3CC4)C2=O)c1
Ki [3]: 0.0008 µM
